According to ChEMBL document CHEMBL4828735, “Discovery of N-((3S,4S)-4-(3,4-Difluorophenyl)piperidin-3-yl)-2-fluoro-4-(1-methyl-1H-pyrazol-5-yl)benzamide (Hu7691), a Potent and Selective Akt Inhibitor That Enables Decrease of Cutaneous Toxicity” (J Med Chem, 2021):

Columns and labels:
[1] = target: RAC-alpha serine/threonine-protein kinase (Homo sapiens, UniProt P31749); assay: Inhibition of N-terminal GST-tagged human AKT1 (104 to 408 residues) expressed in baculovirus infected Sf21 cells incubated for 1 hr in presence of ATP by mobility shift assay
Chain of RAC-alpha serine/threonine-protein kinase (P31749 whole entry, the tested form may be a part): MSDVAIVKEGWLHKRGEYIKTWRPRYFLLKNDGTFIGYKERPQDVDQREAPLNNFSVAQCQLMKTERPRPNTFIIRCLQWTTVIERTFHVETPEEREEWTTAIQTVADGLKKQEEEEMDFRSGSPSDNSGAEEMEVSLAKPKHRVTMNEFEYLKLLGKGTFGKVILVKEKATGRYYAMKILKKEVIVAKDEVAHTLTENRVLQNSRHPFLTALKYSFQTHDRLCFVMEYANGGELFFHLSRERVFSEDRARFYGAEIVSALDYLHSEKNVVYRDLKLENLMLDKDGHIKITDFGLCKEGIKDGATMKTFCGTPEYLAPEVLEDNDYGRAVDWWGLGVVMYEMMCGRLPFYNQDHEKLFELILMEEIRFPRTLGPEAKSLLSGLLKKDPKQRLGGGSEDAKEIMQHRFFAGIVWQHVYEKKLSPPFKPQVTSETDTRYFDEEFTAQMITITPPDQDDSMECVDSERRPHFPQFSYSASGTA

[2] = test system: HGC-27; assay: Antiproliferative activity against human HGC-27 cells assessed as inhibition of cell growth incubated for 72 hrs by SRB assay; format: functional, cell-based; conditions: HGC-27, 72 h
[3] = test system: KHOS/NP; assay: Antiproliferative activity against human KHOS cells assessed as inhibition of cell growth incubated for 72 hrs by SRB assay; format: functional, cell-based
[4] = test system: 786-0; assay: Antiproliferative activity against human 786-0 cells assessed as inhibition of cell growth incubated for 72 hrs by SRB assay; format: functional, cell-based; conditions: 786-0, 72 h

Row | SMILES | IC50 [1] | IC50 [2] | IC50 [3] | IC50 [4]
1 | Cn1ncc(Cl)c1-c1cc(F)c(C(=O)N[C@@H]2CNCC[C@H]2c2ccc(F)c(F)c2)c(F)c1 | 0.0971 µM | 4.86 µM | 4.46 µM | 4.28 µM
2 | Cn1nccc1-c1cc(F)c(C(=O)N[C@@H]2CNCC[C@H]2c2ccc(F)cc2)cc1F | 0.0353 µM | 3.36 µM | 17.6 µM | 7.81 µM
3 | CCn1nccc1-c1ccc(C(=O)N[C@@H]2CNCC[C@H]2c2ccc(F)c(F)c2)c(F)c1 | 0.176 µM | 3.57 µM | 5.46 µM | 5.2 µM
4 | Cn1nccc1-c1cc(F)c(C(=O)N[C@@H]2CNCC[C@H]2c2ccc(F)c(F)c2)c(F)c1 | 0.0263 µM | 4.59 µM | 15.4 µM | 7.99 µM
5 | Cn1nccc1-c1cc(F)c(C(=O)N[C@@H]2CNCC[C@H]2c2ccc(F)cc2)c(F)c1 | 0.107 µM | 7.27 µM | 29.1 µM | 25.5 µM
6 | Cn1nccc1-c1cc(F)c(C(=O)N[C@@H]2CNCC[C@H]2c2ccc(F)c(F)c2)c(Cl)c1 | 0.047 µM | 1.7 µM | 3.89 µM | 2.2 µM
7 | Cn1nccc1-c1ccc(C(=O)N[C@@H]2CNCC[C@H]2c2ccc(F)c(F)c2)c(Cl)c1 | 0.024 µM | 1.4 µM | 11.7 µM | 4.07 µM
8 | Cn1ncc(Cl)c1-c1cc(F)c(C(=O)N[C@@H]2CNCC[C@H]2c2ccc(F)c(F)c2)c(Cl)c1 | 0.142 µM | 3.06 µM | 3.67 µM | 3.17 µM
9 | O=C(N[C@@H]1CNCC[C@H]1c1ccc(F)c(F)c1)c1ccc(-c2ccn[nH]2)cc1F | 0.083 µM | 4.34 µM | 10.7 µM | 7.15 µM
10 | Cn1ncc(Br)c1-c1cc(F)c(C(=O)N[C@@H]2CNCC[C@H]2c2ccc(F)c(F)c2)cc1F | 0.0662 µM | 1.79 µM | 3.06 µM | 1.9 µM
